US4173648A, “3β-Hydroxy-18β-olean-9-en-30-oic acids” (I.S.F. SpA, priority 1977, dated 1979)
Where a name gives a salt, the structure may show the parent alone.

Assays:
male Wistar rats = test: anti-diuretic action, urinary sodium and potassium (method of F. M. Sullivan); assay type: in vivo, rat (Wistar); settings: for Na+/K+ ratio (urine): gastric probe, urine of five hours after treatment; for % inhibition of the ratio Na+/K+: ratio in controls = 100
Experimental: The urine produced in the five hours after treatment are collected and the potassium and sodium contents are determined. The tests were carried out at two dosage levels, 30 and 60 mg/kg, using, for each dosage level, 8 pairs of animals.

male Swiss mice = test: anti-ulcer action, cold stress by immersion in water and contention stress (method of C. J. Pfeiffer); assay type: in vivo, mouse (Swiss); settings: controls = 100
Experimental: The test was carried out on male Swiss mice with an average body weight of 23 g. subjected to cold stress by immersion in water and to a contention stress according to the method of C. J. Pfeiffer ("Peptic ulcer", Munksgaard, 1971, page 84). Three dosage levels of 25, 50 and 100 mg/kg and 15 animals for each dosage level were used.
The anti-ulcer action of the compounds was evaluated by calculating the percentage average inhibition, which indicates the inhibition of the ulcer seriousness index in the treated animals, taking 100 as the seriousness index of the controls.

[1] = LD50 in mice per os (acute toxicity); settings: mouse, in vivo, po

With `CC1(C)[C@@H](OC(=O)CCC(=O)O)CC[C@]2(C)C3=CCC4[C@@H]5C[C@@](C)(C(=O)O)CC[C@]5(C)CC[C@@]4(C)[C@]3(C)CC[C@@H]12` (stereo partly drawn) [Disodium salt of 3β-(3-carboxypropionoxy)-18β-olean-9-en-30-oic acid] the “Na+/K+ ratio (urine)” value (male Wistar rats; 30 mg/kg) was 3.18, the “% inhibition of the ratio Na+/K+” value (male Wistar rats; 30 mg/kg) was 0% and the “Na+/K+ ratio (urine)” value (male Wistar rats; 60 mg/kg) was 3.59. The “% inhibition of the ratio Na+/K+” value (male Wistar rats; 60 mg/kg) was -3%, the “% average inhibition (of the ulcer seriousness index)” value (male Swiss mice; 25 mg/kg os) was 13% and the “% average inhibition (of the ulcer seriousness index)” value (male Swiss mice; 50 mg/kg os) was 22.5%. For the same molecule, the “% average inhibition (of the ulcer seriousness index)” value (male Swiss mice; 100 mg/kg os) was 70.5% and the LD50 [1] was 1000 mg/kg.
For `CC1(C)[C@@H](OC(=O)CCC(=O)O)CC[C@]2(C)[C@H]3C(=O)C=C4[C@@H]5C[C@@](C)(C(=O)O)CC[C@]5(C)CC[C@@]4(C)[C@]3(C)CC[C@@H]12` [carbenoxolone, disodium salt of glycycrrhetinic acid 3-hemisuccinate], the “Na+/K+ ratio (urine)” value (male Wistar rats; 30 mg/kg) was 1.81, the “% inhibition of the ratio Na+/K+” value (male Wistar rats; 30 mg/kg) was 43% and the “Na+/K+ ratio (urine)” value (male Wistar rats; 60 mg/kg) was 1.24. The “% inhibition of the ratio Na+/K+” value (male Wistar rats; 60 mg/kg) was 64%, the “% average inhibition (of the ulcer seriousness index)” value (male Swiss mice; 25 mg/kg os) was 29.5% and the “% average inhibition (of the ulcer seriousness index)” value (male Swiss mice; 50 mg/kg os) was 29%. The “% average inhibition (of the ulcer seriousness index)” value (male Swiss mice; 100 mg/kg os) was 63.5% and the LD50 [1] was 700 mg/kg.
